Test results reported in PubChem BioAssay (NCI).
“And” between values parts separate entries of the source, which are not always exact repeats. Identical values can stand only once.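 Dose response: 5 concentrations. Exposure: 48 h. Format: 96-well plates. Endpoint: linear interpolation; highest concentration if not reached. GI50: concentration for 50% inhibition of growth. Definition used: TGI = concentration required for complete inhibition of growth.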

How the values were obtained:
Assay in all cases: DTP human tumour cell line panel, 48 h
NCI-H226 lung = test system: NCI-H226 lung
T-47D breast = test system: T-47D breast
SK-MEL-2 melanoma = test system: SK-MEL-2 melanoma
K-562 leukemia = test system: K-562 leukemia
EKVX NSCLC = test system: EKVX NSCLC
ACHN renal = test system: ACHN renal
DU-145 prostate = test system: DU-145 prostate
MOLT-4 leukemia = test system: MOLT-4 leukemia
OVCAR-4 ovarian = test system: OVCAR-4 ovarian
MCF7 breast = test system: MCF7 breast

## COC(=O)[C@]12CC[C@@H](C)[C@H](C)[C@@H]1C1=CC[C@@H]3[C@@](C)(CC#N)C4=C(C[C@@]3(C)[C@]1(C)CC2)OC[C@]4(C)C=O
NCI-H226 lung
  GI50: 8.51 µM
  TGI: 43.7 µM
T-47D breast
  GI50: 2.77 µM
  TGI: 16.1 µM
SK-MEL-2 melanoma
  GI50: 4.31 µM
  TGI: 18 µM
K-562 leukemia
  GI50: 3.22 µM
  TGI: > 100 µM
EKVX NSCLC
  GI50: 4.32 µM
  TGI: 48.7 µM
ACHN renal
  GI50: 6.42 µM
  TGI: > 100 µM
DU-145 prostate
  GI50: 4.78 µM
  TGI: > 100 µM
MOLT-4 leukemia
  GI50: 2.1 µM
  TGI: 6.89 µM
OVCAR-4 ovarian
  GI50: 4.15 µM
  TGI: > 100 µM
MCF7 breast
  GI50: 3.05 µM
  TGI: 11.4 µM

## O=C(CCN1CCCN(c2cnc3ccccc3n2)CC1)c1csc2ccccc12
NCI-H226 lung
  GI50: 21.1 µM
  TGI: 38.5 µM
T-47D breast
  GI50: 11 µM
  TGI: 25.3 µM
SK-MEL-2 melanoma
  GI50: 27.3 µM
  TGI: 76.5 µM
K-562 leukemia
  GI50: 20 µM
  TGI: 48.6 µM
EKVX NSCLC
  GI50: 19.6 µM
  TGI: 38.7 µM
ACHN renal
  GI50: 17.9 µM
  TGI: 31.8 µM
DU-145 prostate
  GI50: 16.6 µM
  TGI: 32.4 µM
MOLT-4 leukemia
  GI50: 26 µM
  TGI: 57.9 µM
OVCAR-4 ovarian
  GI50: 18.5 µM
  TGI: 35.1 µM
MCF7 breast
  GI50: 3.2 µM
  TGI: 16.4 µM

## Fc1ccc(Nc2nc3nonc3nc2Nc2ccc(I)cc2)cc1
NCI-H226 lung
  GI50: 0.319 µM
  TGI: 1.94 µM
T-47D breast
  GI50: 0.228 µM
  TGI: 0.892 µM
SK-MEL-2 melanoma
  GI50: 0.213 µM
  TGI: 0.617 µM
K-562 leukemia
  GI50: 0.181 µM
  TGI: 11 µM
EKVX NSCLC
  GI50: 0.273 µM
  TGI: 10.1 µM
ACHN renal
  GI50: 0.171 µM
  TGI: 3.43 µM
DU-145 prostate
  GI50: 0.395 µM
  TGI: 16.8 µM
MOLT-4 leukemia
  GI50: 0.219 µM
  TGI: 0.75 µM
OVCAR-4 ovarian
  GI50: 0.283 µM
  TGI: 64.5 µM
MCF7 breast
  GI50: 0.277 µM
  TGI: 4.08 µM

## O=C(/C=C/C=C/c1ccc2c(c1)OCO2)N/N=C\c1ccc(O)cc1O
NCI-H226 lung
  GI50: 2.78 µM
  TGI: 11.3 µM
T-47D breast
  GI50: 2.55 µM
  TGI: 24 µM
SK-MEL-2 melanoma
  GI50: 5.51 µM
  TGI: 27 µM
K-562 leukemia
  GI50: 2.83 µM
  TGI: > 100 µM
EKVX NSCLC
  GI50: 2.05 µM
  TGI: 15.1 µM
ACHN renal
  GI50: 1.99 µM
  TGI: 13.1 µM
DU-145 prostate
  GI50: 3.46 µM
  TGI: 22.3 µM
MOLT-4 leukemia
  GI50: 1.41 µM
  TGI: 18.8 µM
OVCAR-4 ovarian
  GI50: 0.459 µM
  TGI: 9.82 µM
MCF7 breast
  GI50: 2.6 µM
  TGI: 13.7 µM

## Cc1c(C(=O)c2ccccc2)[n+](=O)c2cc(F)c(F)cc2n1[O-]
NCI-H226 lung
  GI50: 2.67 µM
  TGI: 4.34 µM
T-47D breast
  GI50: 3.7 µM
  TGI: 20.1 µM
K-562 leukemia
  GI50: 1.97 µM
  TGI: > 100 µM
EKVX NSCLC
  GI50: 10.4 µM
  TGI: 33 µM
ACHN renal
  GI50: 1.66 µM
  TGI: 3.02 µM
DU-145 prostate
  GI50: 10.8 µM
  TGI: 24.5 µM
MOLT-4 leukemia
  GI50: 1.04 µM
  TGI: 80.4 µM
OVCAR-4 ovarian
  GI50: 3.11 µM
  TGI: > 100 µM
MCF7 breast
  GI50: 4.35 µM
  TGI: 21 µM

## CC1[C@@H]2CC=C3[C@H]4CCC5Cc6nc7c(nc6C[C@@]5(C)C4CC(=O)[C@]32CO[C@]12OC(C)(C)CC2O)CC1CC[C@@H]2C3=C[C@H]4O[C@@]5(O[C@@](C)(CO)C[C@@H]5O)C(C)[C@@]4(O)[C@]3(C)[C@@H](O)CC2[C@]1(C)C7 (stereo not given in full)
NCI-H226 lung
  TGI: 0.0901 µM and 0.103 µM
T-47D breast
  GI50: 0.246 µM
SK-MEL-2 melanoma
  GI50: 0.0011 µM and 0.00208 µM
  TGI: 0.0242 µM and 0.0699 µM
K-562 leukemia
  GI50: 0.000615 µM and 0.00111 µM
  TGI: 0.0278 µM and 0.0311 µM
EKVX NSCLC
  GI50: 0.00539 µM and 0.00763 µM
  TGI: 0.141 µM and 0.227 µM
ACHN renal
  GI50: 0.00805 µM
  TGI: 0.846 µM
DU-145 prostate
  GI50: 0.0538 µM
  TGI: 0.716 µM
MOLT-4 leukemia
  GI50: 0.000203 µM and 0.000365 µM
  TGI: 0.00156 µM and 0.00157 µM
OVCAR-4 ovarian
  GI50: 0.039 µM and 0.0985 µM
  TGI: 0.921 µM and > 3.65 µM
MCF7 breast
  GI50: 0.000482 µM and 0.00142 µM
